The test system of experiment [1] is E. coli strain G909. The experiment can be described thus: CPCA resistance test: growth in minimal medium E with CPCA. It is filed as cell-based. Particulars: 24 hr, 36° C. The protocol:
(§1) To test for CPCA resistance, each strain was cultivated in 20 ml of the seed medium SM (32.5 g/L glucose; 1 g/L MgSO4 7H2O; 24.36 g/L K2HPO4; 9.52 g/L KH2PO4; 5 (NH4)2SO4; 15 g/L yeast extract; pH 7.2) at 36° C. for 17 hr with shaking. The cells were harvested and washed with minimal medium E. The cell suspension was then inoculated into a sterilized tube containing 3 ml of minimal medium E and 0, 0.1, 0.5, or 1 mM CPCA. After 24 hr cultivation as 36° C. with shaking, growth was determined by measuring the optical density at 660 nm. The results are shown below in Table 1 relative to growth in the absence of CPCA.

The subject of experiment [2] is E. coli strain 6-8. Described as above. The note with it: 24 hr, 36° C. Details: unit not given here. It is filed as cell-based. As for the experimental part:
as §1

Experiment [3] concerns the target threonyl tRNA-synthetase (Escherichia coli, UniProt P0A8M3). Particulars: G. Nass et al. 1969; cited from earlier work.
For experiment [4], the system named is E. coli. Particulars: G. Nass et al. 1969; cited from earlier work.

Chain of threonyl tRNA-synthetase (P0A8M3 whole entry): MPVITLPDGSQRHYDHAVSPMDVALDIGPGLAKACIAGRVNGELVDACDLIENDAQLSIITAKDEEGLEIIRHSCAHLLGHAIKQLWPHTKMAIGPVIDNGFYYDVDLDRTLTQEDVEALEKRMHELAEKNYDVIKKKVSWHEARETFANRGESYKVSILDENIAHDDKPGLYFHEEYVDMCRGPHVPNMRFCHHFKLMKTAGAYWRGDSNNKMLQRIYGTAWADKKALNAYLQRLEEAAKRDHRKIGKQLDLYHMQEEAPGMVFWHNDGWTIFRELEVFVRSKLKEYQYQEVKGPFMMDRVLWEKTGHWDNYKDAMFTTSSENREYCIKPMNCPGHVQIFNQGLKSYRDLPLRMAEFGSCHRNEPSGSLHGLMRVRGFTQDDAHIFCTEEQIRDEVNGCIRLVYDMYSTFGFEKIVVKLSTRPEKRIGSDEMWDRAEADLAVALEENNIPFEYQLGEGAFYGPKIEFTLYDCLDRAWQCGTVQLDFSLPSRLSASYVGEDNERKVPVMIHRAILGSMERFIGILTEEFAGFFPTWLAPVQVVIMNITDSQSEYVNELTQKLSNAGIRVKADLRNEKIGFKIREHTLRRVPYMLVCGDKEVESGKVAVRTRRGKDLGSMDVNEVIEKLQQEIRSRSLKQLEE

`O=C(O)C1CCCC1` [CPCA, cyclopentanecarboxylic acid]: the “growth (optical density at 660 nm) relative to growth in the absence of CPCA” value in experiment [1] (0.1 mM CPCA) was 24.2; in experiment [1] (0.5 mM CPCA), 2.9; in experiment [1] (1 mM CPCA) it was 0.9; in experiment [2] (0.1 mM CPCA), 134.5; in experiment [2] (0.5 mM CPCA), 141.0; in experiment [2] (1 mM CPCA), 184.5.

Regarding `C[C@@H]1C[C@H](C)C[C@H](C)[C@@H](O)CC(=O)O[C@H]([C@@H]2CCC[C@H]2C(=O)O)C/C=C/C=C(/C#N)[C@H](O)[C@@H](C)C1` [borrelidin], in experiment [3], the “effect on enzymatic activity of threonyl tRNA-synthetase” value is “reduce the enzymatic activity”. Also, in experiment [4], the “effect on growth of E. coli” value is “inhibit the growth”.

The values are drawn from patent US8101386B2, “Escherichia coli strains which over-produce L-threonine and processes for the production of L-threonine by fermentation” (Archer Daniels Midland Company, priority 2000, dated 2012).
